A word on the EC50: it is the midpoint of the concentration-response curve. Read a high EC50 as lower potency in that assay.

Data on one compound can be found in US12351580B2, “NLRP3 modulators” (Innate Tumor Immunity, Inc., priority 2017, dated 2025).

In this assay the target is T1, hNLRP3 (Homo sapiens, UniProt Q96P20).
T1 construct: THP-1 cells were purchased from the American Type Culture Collection; host or cells: THP-1 cells, PMA-differentiated
Kind of assay: Measurement of IL-1β production in PMA-differentiated THP-1 cells (hNLRP3 agonist; ELISA, alternative and hTRF procedures). It counts as cell-based. Put shortly: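 Supernatant IL-1β was quantified by ELISA in two procedures and by hTRF (kit antibodies at 1:40) in a third. THP-1 cells were first differentiated with PMA ([…] for 24 h; 20 μg/ml overnight; 50 ng/ml overnight), then incubated in 2% FBS RPMI with compounds for 4 h, 2 h and 2 h, respectively, at 1% DMSO or a 10 μM top concentration.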
Background: An ELISA detects its analyte on a solid surface through an enzyme-linked reagent.

T1 sequence (Q96P20 whole entry): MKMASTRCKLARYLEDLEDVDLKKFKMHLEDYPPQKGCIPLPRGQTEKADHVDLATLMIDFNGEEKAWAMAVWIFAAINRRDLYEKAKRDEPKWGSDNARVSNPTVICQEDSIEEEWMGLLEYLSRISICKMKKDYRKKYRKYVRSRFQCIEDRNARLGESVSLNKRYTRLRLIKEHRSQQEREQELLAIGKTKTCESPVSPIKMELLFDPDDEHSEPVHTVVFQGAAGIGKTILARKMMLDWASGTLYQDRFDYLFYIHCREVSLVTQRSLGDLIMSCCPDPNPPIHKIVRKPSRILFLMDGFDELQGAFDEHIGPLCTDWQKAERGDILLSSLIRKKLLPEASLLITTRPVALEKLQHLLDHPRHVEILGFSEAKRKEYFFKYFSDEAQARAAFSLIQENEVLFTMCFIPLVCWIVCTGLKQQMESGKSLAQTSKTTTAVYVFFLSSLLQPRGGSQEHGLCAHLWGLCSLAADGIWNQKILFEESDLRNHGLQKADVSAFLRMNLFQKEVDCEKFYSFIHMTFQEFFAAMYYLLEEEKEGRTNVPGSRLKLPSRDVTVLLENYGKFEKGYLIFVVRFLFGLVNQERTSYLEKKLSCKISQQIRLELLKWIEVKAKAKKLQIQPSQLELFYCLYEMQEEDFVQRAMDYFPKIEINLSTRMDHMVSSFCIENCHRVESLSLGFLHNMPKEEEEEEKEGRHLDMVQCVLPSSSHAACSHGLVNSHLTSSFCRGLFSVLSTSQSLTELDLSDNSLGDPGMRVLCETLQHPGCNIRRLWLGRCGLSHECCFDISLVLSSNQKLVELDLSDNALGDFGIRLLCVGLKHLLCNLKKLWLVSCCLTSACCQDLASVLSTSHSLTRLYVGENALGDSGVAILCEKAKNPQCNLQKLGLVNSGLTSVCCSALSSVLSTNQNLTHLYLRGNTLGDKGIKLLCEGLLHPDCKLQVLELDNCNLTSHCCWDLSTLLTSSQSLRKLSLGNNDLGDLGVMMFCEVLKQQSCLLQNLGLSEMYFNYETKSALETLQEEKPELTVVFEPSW

With `CC(c1nc2c(N)nc3cc(Br)ccc3c2[nH]1)N1CCCC1=O` (stereo not shown) [Compound 303, 1-[1-(4-amino-7-bromo-1H-imidazo[4,5-c]quinolin-2-yl)ethyl]pyrrolidin-2-one], a half-maximal response (EC50) required 11.1 µM.
